In brackets after ≈: the same amount, converted by molar mass. Numbered stars: 1 amine (or outer) side, 2 acyl side, 3 side chain; on linkers, the order of the positions; unused ones are H or OH. Peptide text beside a SMILES is read from it. * marks the point of attachment. Propanoyl(3-cHex) = O=C(CCC1CCCCC1)*; Cyclohexylacetyl = O=C(CC1CCCCC1)*; Cyclopentylacetyl = O=C(CC1CCCC1)*; Cyclopropanecarbonyl = O=C(C1CC1)*; Butanoyl(2-Et) = CCC(CC)C(=O)*; Suc = O=C(CCC(=O)[*:2])[*:1]; Isobutyryl = CC(C)C(=O)*; Butyryl = CCCC(=O)*
Tests used:
[1] = target: T1, PLC-γ1 (Bos taurus, UniProt P08487); test: PLC-inhibiting activity (release of [3H]inositol phosphate from [3H]PIP2); type: biochemical, bovine; details: PI-PLC-γ1, 37° C., 10 minutes; for inhibition at 120 µM (stock): Concentration 120 μM (aqueous solution of test peptide)
T1 construct: A sample (PLC-γ1) was prepared from bovine thymus according to the method of Y. Homma et al; from tissue; host or cells: bovine thymus
T1 sequence (P08487 1-1291): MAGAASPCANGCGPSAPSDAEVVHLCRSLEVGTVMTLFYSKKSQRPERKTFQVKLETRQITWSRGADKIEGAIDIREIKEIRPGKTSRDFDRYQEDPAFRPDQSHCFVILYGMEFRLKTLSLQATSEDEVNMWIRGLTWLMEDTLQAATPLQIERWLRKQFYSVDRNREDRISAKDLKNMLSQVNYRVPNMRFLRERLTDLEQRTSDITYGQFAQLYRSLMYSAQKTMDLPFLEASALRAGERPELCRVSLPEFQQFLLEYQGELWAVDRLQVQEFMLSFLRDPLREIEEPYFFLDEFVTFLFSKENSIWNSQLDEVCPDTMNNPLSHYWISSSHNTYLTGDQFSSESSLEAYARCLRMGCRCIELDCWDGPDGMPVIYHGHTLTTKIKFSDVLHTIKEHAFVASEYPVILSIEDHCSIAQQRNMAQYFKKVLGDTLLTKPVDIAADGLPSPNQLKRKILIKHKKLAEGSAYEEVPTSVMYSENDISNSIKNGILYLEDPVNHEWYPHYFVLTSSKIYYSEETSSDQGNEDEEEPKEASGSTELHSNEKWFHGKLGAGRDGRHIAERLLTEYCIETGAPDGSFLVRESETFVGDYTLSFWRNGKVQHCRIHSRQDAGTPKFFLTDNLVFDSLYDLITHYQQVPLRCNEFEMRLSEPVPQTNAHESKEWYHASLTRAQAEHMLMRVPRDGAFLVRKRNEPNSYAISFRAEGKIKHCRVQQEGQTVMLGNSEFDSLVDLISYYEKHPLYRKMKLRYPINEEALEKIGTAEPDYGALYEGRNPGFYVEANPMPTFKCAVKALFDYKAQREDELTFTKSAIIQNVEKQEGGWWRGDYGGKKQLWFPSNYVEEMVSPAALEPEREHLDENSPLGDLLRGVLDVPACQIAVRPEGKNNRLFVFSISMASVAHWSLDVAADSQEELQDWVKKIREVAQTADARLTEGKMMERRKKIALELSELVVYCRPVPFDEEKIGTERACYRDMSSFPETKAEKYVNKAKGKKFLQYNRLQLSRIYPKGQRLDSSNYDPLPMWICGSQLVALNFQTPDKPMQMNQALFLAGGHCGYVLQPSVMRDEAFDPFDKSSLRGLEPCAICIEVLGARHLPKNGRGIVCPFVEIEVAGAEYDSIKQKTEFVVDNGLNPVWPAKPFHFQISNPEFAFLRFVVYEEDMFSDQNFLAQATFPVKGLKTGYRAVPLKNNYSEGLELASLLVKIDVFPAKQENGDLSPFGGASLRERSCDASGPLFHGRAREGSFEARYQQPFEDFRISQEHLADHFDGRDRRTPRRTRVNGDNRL
Procedure: A sample (PLC-γ1) was prepared from bovine thymus according to the method of Y. Homma et al. described in Biochemical Journal [(Biochem. J.), 269, 13 (1990)]. A solution having the composition listed in Table 1 below was prepared in advance on the ice and the reaction was begun with heating to 37° C. After incubation for 10 minutes, 2 ml of a solution mixture of chloroform/methanol (2:[…]) was added thereto to stop the reaction. The resulting inositol phosphate was extracted with 0.5 ml of 1N hydrochloric acid. Two-phase distribution was carried out by centrifugation (2000×g, 3 minutes), and the amount of ^3 H contained in 0.7 ml of the supernatant was measured with scintillation counter. […] The obtained value of specific radioactivity was defined as "A", the value of specific radioactivity obtained when an equivalent amount of water was added instead of the aqueous solution of the test peptide was defined as "B", the value of specific radioactivity obtained when an equivalent amount of water was added instead of the sample and the aqueous solution of the test peptide was defined as "C", and the inhibition rate (X) was determined according to the following equation. X(%)=[…]

[2] = test system: KMS-4 cells; test: Cell proliferation-inhibiting activity (BrdU incorporation, Amersham Cell Proliferation Detection Kit); type: cell-based; details: 17 hours with peptide, BrdU-stained cells
Procedure: The following procedure was carried out with an Amersham Cell Proliferation Detection Kit. First, cells [KMS-4; M. Nanba et al., International Journal of Cancer, 32, 697 (1983)] were suspended in a DMEM culture medium (product of Nissui Seiyaku) containing 10% fetal calf serum to a concentration of 1-2×10^4 cells/ml, and 1 ml of the above-mentioned cell suspension was put into each well of a 24-well plate (product of Corning Co.). The cells were cultured for 2 days in a CO2 incubator (37° C., 5% CO2). Next, the culture medium was exchanged with a DMEM medium containing 10% fetal calf serum, and then the test peptide was added thereto and culturing was carried out for 17 hours. The culture medium was again exchanged with a serum-free DMEM medium, 0.5 ml of a solution of the reagents labelled 5-bromo-2'-deoxyuridine (BrdU) and 5-fluoro-2'-deoxyuridine (FdU) [10:1] diluted 1000-fold with the same medium was added to each well, and cultured for 2 hours. The culture medium was removed, and the cells were immobilized with an acetic acid/ethanol solution. The immobilized cells were stained according to the method for the Amersham Cell Proliferation Kit, and then further stained with a 1% Giemsa solution (product of Merck Co.). The number of cells incorporating BrdU and the total cell count within 1 field of vision of the microscope (approximately 200 cells) were determined, and the proportion (%) of stained cells per field of vision was calculated. Furthermore, the same procedure was repeated 10 times, and the average value thereof was defined as the cell proliferation activity (%). The cell proliferation-inhibiting activity was calculated in the following manner. The proliferation activity without addition of peptide was defined as "A", the proliferation activity with addition of the test peptide was defined as "B", and the cell proliferation inhibition rate (X) was determined according to the following equation. X (%)=[…]

[3] = test system: Proteus vulgaris ATCC6897; type: cell-based; details: ATCC6897, pH 7
Procedure: (§1) The antibacterial activity was determined by the agar dilution method using a culture medium (pH 7.0) containing 3 g/l bactotrypton (product of Difco Co.), 1 g/l meat extract, 1 g/l glucose and 16 g/l agar.

[4] = test system: Pseudomonas aeruginosa Bin H No. 1; type: cell-based; details: Bin H No. 1, pH 7
Procedure: as §1

Row | Compound | Cell proliferation inhibition rate (%) ([2]; Concentration 32 μM) | MIC [3] [µg/mL] | MIC [4] [µg/mL] | Cell proliferation inhibition rate (%) ([2]; Concentration 31 μM) | inhibition at 120 µM (stock) ([1]; read-out: Inhibition rate (%)) [%] | further results
1 | CSCC[C@H](NC(=O)[C@H](CCCCN)NC(=O)[C@H](CCCNC(=N)N)NC(=O)[C@H](Cc1ccc(O)cc1)NC(=O)[C@H](CC(C)C)NC(=O)C(C)C)C(=O)N[C@@H](CCCNC(=N)N)C(=O)N[C@@H](CC(C)C)C(=O)N[C@@H](CCCNC(=N)N)C(=O)N[C@@H](Cc1ccc(O)cc1)C(=O)N1CCC[C@H]1C(=O)N[C@H](C(N)=O)C(C)C [(I-19), (CH3)2 CHCO-Leu-Tyr-Arg-Lys-Met-Arg-Leu-Arg-Tyr-Pro-Val-NH2] (Isobutyryl-LYRKMRLRYPV-NH2) | 59 | 83 (≈ 53.1 µM) | 83 (≈ 53.1 µM) | – | – | inhibition at 640 µM (stock) ([1]; Concentration 640 μM (aqueous solution of test peptide), read-out: Inhibition rate (%)): 67%
2 | CSCC[C@H](NC(=O)[C@H](CCCCN)NC(=O)[C@H](CCCNC(=N)N)NC(=O)[C@H](Cc1ccc(O)cc1)NC(=O)[C@H](CC(C)C)NC(=O)CCC(=O)O)C(=O)N[C@@H](CCCNC(=N)N)C(=O)N[C@@H](CC(C)C)C(=O)N[C@@H](CCCNC(=N)N)C(=O)N[C@@H](Cc1ccc(O)cc1)C(=O)N1CCC[C@H]1C(=O)N[C@H](C(N)=O)C(C)C [(I-22), HOO (CH2)2 CO-Leu-Tyr-Arg-Lys-Met-Arg-Leu-Arg-Tyr-Pro-Val-NH2] (Suc-LYRKMRLRYPV-NH2) | – | 83 (≈ 52.1 µM) | 42 (≈ 26.3 µM) | 84 | – | inhibition at 130 µM (stock) ([1]; Concentration 130 μM (aqueous solution of test peptide), read-out: Inhibition rate (%)): 36%
3 | CCC(CC)C(=O)N[C@@H](CC(C)C)C(=O)N[C@@H](Cc1ccc(O)cc1)C(=O)N[C@@H](CCCNC(=N)N)C(=O)N[C@@H](CCCCN)C(=O)N[C@@H](CCSC)C(=O)N[C@@H](CCCNC(=N)N)C(=O)N[C@@H](CC(C)C)C(=O)N[C@@H](CCCNC(=N)N)C(=O)N[C@@H](Cc1ccc(O)cc1)C(=O)N1CCC[C@H]1C(=O)N[C@H](C(N)=O)C(C)C [(I-20), (CH3 CH2)2 CHCO-Leu-Tyr-Arg-Lys-Met-Arg-Leu-Arg-Tyr-Pro-Val-NH2] ({Butanoyl(2-Et)}-LYRKMRLRYPV-NH2) | – | 83 (≈ 52.1 µM) | 83 (≈ 52.1 µM) | 44 | – | inhibition at 630 µM (stock) ([1]; Concentration 630 μM (aqueous solution of test peptide), read-out: Inhibition rate (%)): 74%
4 | CSCC[C@H](NC(=O)[C@H](CCCCN)NC(=O)[C@H](CCCNC(=N)N)NC(=O)[C@H](Cc1ccc(O)cc1)NC(=O)[C@H](CC(C)C)NC(=O)C1CC1)C(=O)N[C@@H](CCCNC(=N)N)C(=O)N[C@@H](CC(C)C)C(=O)N[C@@H](CCCNC(=N)N)C(=O)N[C@@H](Cc1ccc(O)cc1)C(=O)N1CCC[C@H]1C(=O)N[C@H](C(N)=O)C(C)C [(I-24), C3 H5 CO-Leu-Tyr-Arg-Lys-Met-Arg-Leu-Arg-Tyr-Pro-Val-NH2] (Cyclopropanecarbonyl-LYRKMRLRYPV-NH2) | 66 | – | – | – | 55 | –
5 | CSCC[C@H](NC(=O)[C@H](CCCCN)NC(=O)[C@H](CCCNC(=N)N)NC(=O)[C@H](Cc1ccc(O)cc1)NC(=O)[C@H](CC(C)C)NC(=O)CC1CCCC1)C(=O)N[C@@H](CCCNC(=N)N)C(=O)N[C@@H](CC(C)C)C(=O)N[C@@H](CCCNC(=N)N)C(=O)N[C@@H](Cc1ccc(O)cc1)C(=O)N1CCC[C@H]1C(=O)N[C@H](C(N)=O)C(C)C [(I-17), C5 H9 CH2 CO-Leu-Tyr-Arg-Lys-Met-Arg-Leu-Arg-Tyr-Pro-Val-NH2] (Cyclopentylacetyl-LYRKMRLRYPV-NH2) | – | – | – | 72 | 53 | –
6 | CSCC[C@H](NC(=O)[C@H](CCCCN)NC(=O)[C@H](CCCNC(=N)N)NC(=O)[C@H](Cc1ccc(O)cc1)NC(=O)[C@H](CC(C)C)NC(=O)CCC1CCCCC1)C(=O)N[C@@H](CCCNC(=N)N)C(=O)N[C@@H](CC(C)C)C(=O)N[C@@H](CCCNC(=N)N)C(=O)N[C@@H](Cc1ccc(O)cc1)C(=O)N1CCC[C@H]1C(=O)N[C@H](C(N)=O)C(C)C [(I-16), C6 H11 CH2 CH2 CO-Leu-Tyr-Arg-Lys-Met-Arg-Leu-Arg-Tyr-Pro-Val-NH2] ({Propanoyl(3-cHex)}-LYRKMRLRYPV-NH2) | – | – | – | 84 | 51 | –
7 | n-C3 H7 CO-Leu-Tyr-Arg-Lys-Met-Arg-Leu-Arg-Tyr-Pro-Val-NH2 (Butyryl-LYRKMRLRYPV-NH2; SMILES CCCC(=O)N[C@@H](CC(C)C)C(=O)N[C@@H](Cc1ccc(O)cc1)C(=O)N[C@@H](CCCNC(=N)N)C(=O)N[C@@H](CCCCN)C(=O)N[C@@H](CCSC)C(=O)N[C@@H](CCCNC(=N)N)C(=O)N[C@@H](CC(C)C)C(=O)N[C@@H](CCCNC(=N)N)C(=O)N[C@@H](Cc1ccc(O)cc1)C(=O)N1CCC[C@H]1C(=O)N[C@H](C(N)=O)C(C)C) [Compound (I-11)] | 84 | – | – | – | – | Inhibition rate (%) ([1]; Concentration 130 μM (aqueous solution of test peptide)): 31%; Cell proliferation inhibition rate (%) ([2]; Concentration 1 μM): 86%
8 | CSCC[C@H](NC(=O)[C@H](CCCCN)NC(=O)[C@H](CCCNC(=N)N)NC(=O)[C@H](Cc1ccc(O)cc1)NC(=O)[C@H](CC(C)C)NC(=O)CC1CCCCC1)C(=O)N[C@@H](CCCNC(=N)N)C(=O)N[C@@H](CC(C)C)C(=O)N[C@@H](CCCNC(=N)N)C(=O)N[C@@H](Cc1ccc(O)cc1)C(=O)N1CCC[C@H]1C(=O)N[C@H](C(N)=O)C(C)C [(I-25), C6 H11 CH2 CO-Leu-Tyr-Arg-Lys-Met-Arg-Leu-Arg-Tyr-Pro-Val-NH2] (Cyclohexylacetyl-LYRKMRLRYPV-NH2) | – | – | – | 75 | 50 | –

From patent publication US5580956A, “Phospholipase C-inhibiting peptides” (priority 1992, dated 1996)
